Patent publication US12570639B2, “Tetrahydroquinoline derivative and medicinal use thereof” (Toray Industries, Inc., priority 2020, dated 2026)
Structures can show the parent of a compound that is named as a salt.

Tested on: Human fibrosarcoma cells (HT-1080 cells)
Assay: In vitro inhibitory action against ferroptosis (Erastin-induced cell death, Cell Counting Kit-8)
Type: cell-based
Settings: evaluation concentration 25 μmol/L, Erastin 3 μmol/L, 24 hours
Method: The inhibitory action against ferroptosis of the tetrahydroquinoline derivative (I) or a pharmaceutically acceptable salt thereof was evaluated with Human fibrosarcoma cells (HT-1080 cells), by using, as an index, the inhibitory action against the cell death induced by treatment with a ferroptosis inducer, Erastin.
HT-1080 cells (ATCC) were cultured in a mixture (hereinafter referred to as vehicle) composed of DMEM/F12 (Thermo Fisher Scientific, Inc.), a final concentration of 10% fetal bovine serum (Thermo Fisher Scientific, Inc.), and a final concentration of 1% penicillin-streptomycin solution (Nacalai Tesque, Inc.). Cells were seeded into 96-well plates (Corning Inc.) at 5×10^4 cells/well and cultured overnight.
A test compound was dissolved in DMSO, and the resulting solution was diluted in the vehicle to a final concentration of 1% DMSO and then used. […] Thirty minutes after the addition of the test compound, Erastin (Cayman Chemical Co.) diluted in the vehicle at a final concentration of 3 μmol/L was added to wells. The wells added with the test compound and Erastin were grouped as “test compound,” and the wells added with no test compound and no Erastin were grouped as “background,” and the wells added with no test compound but with Erastin were grouped as “control.” Twenty-four hours after the addition of Erastin, 5 μL of Cell Counting Kit-8 (Dojindo Laboratories) was added to each well and incubated for 4 hours, and the absorbance at 450 nm was then measured for each well (N=2). […] Ferroptosis inhibition rate (%)=[1−{(Average absorbance value at 450 nm measured when a test compound is added)−(Average absorbance value at 450 nm measured in the background)}/{(Average absorbance value at 450 nm measured in the control)−(Average absorbance value at 450 nm measured in the background)}]×100 Equation 1

With Nc1ccc2c(c1)CCC(c1ccccc1)N2 (stereo not shown) [Example 64, 2-phenyl-1,2,3,4-tetrahydroquinoline-6-amine dihydrochloride] the “Ferroptosis inhibition rate (%)” value was 82.89%.

Same assay, conditions: evaluation concentration 30 μmol/L, Erastin 3 μmol/L, 24 hours

First: OCc1ccc(C2CNc3ccccc3C2)cc1 (stereo not shown) [Example 165, (4-(1,2,3,4-tetrahydroquinolin-3-yl)phenyl)methanol]
Second: c1ccc2c(c1)CCC(c1cn[nH]c1)N2 (stereo not shown) [Example 12, 2-(1H-pyrazol-4-yl)-1,2,3,4-tetrahydroquinoline]
The “Ferroptosis inhibition rate (%)” value of the first is lower: 96.77% for the first, 110.9% for the second.

Compared with c1ccc(C2CCc3cc(N4CCCCC4)ccc3N2)cc1 (stereo not shown) [Example 72, 2-phenyl-6-(piperidin-1-yl)-1,2,3,4-tetrahydroquinoline], CC(=O)Nc1ccc(C2CNc3ccccc3C2)cc1 (stereo not shown) [Example 168, N-(4-(1,2,3,4-tetrahydroquinolin-3-yl)phenyl)acetamide] is lower in “Ferroptosis inhibition rate (%)” value: 110.6% for the first, 86.46% for the second.

First: O=C(Cc1ccc2c(c1)CCC(c1ccccc1)N2)NCC1CC1 (stereo not shown) [Example 153, N-(cyclopropylmethyl)-2-(2-phenyl-1,2,3,4-tetrahydroquin-olin-6-yl)acetamide]
Second: OCc1ccc(C2CCc3ccccc3N2)cc1 (stereo not shown) [Example 49, (4-(1,2,3,4-tetrahydroquinolin-2-yl)phenyl)methanol]
The “Ferroptosis inhibition rate (%)” value of the first is higher: 110.1% for the first, 99.20% for the second.

Going from CS(=O)(=O)c1ccc(C2CNc3ccccc3C2)cc1 (stereo not shown) [Example 169, 3-(4-(methylsulfonyl)phenyl)-1,2,3,4-tetrahydroquinoline] to “7-fluoro-(1H-pyrazol-4-yl)-1,2,3,4-tetrahydroquinoline [Example 140]”, the “Ferroptosis inhibition rate (%)” value falls from 85.58% to 72.81%.

Going from NS(=O)(=O)c1ccc(C2CCc3cc(C(F)(F)F)ccc3N2)cc1 (stereo not shown) [Example 142, 4-(6-(trifluoromethyl)-1,2,3,4-tetrahydroquinolin-2-yl)benzenesulfonamide] to c1cncc(C2CNc3ccccc3C2)c1 (stereo not shown) [Example 170, 3-(pyridin-3-yl)-1,2,3,4-tetrahydroquinoline], the “Ferroptosis inhibition rate (%)” value rises from 64.86% to 93.41%.

Going from O=C1NCc2cc(C3CCc4ccccc4N3)ccc21 (stereo not shown) [Example 25, 5-(1,2,3,4-tetrahydroquinolin-2-yl)isoindolin-1-one] to Cc1ccc2c(c1)CCC(c1cnoc1)N2 (stereo not shown) [Example 104, 4-(6-methyl-1,2,3,4-tetrahydroquinolin-2-yl)isoxazole], the “Ferroptosis inhibition rate (%)” value falls from 105.3% to 64.65%.

Going from c1ccc2c(c1)CCC(c1cnsc1)N2 (stereo not shown) [Example 50, 4-(1,2,3,4-tetrahydroquinolin-2-yl)isothiazole] to N#Cc1ccc(C2CCc3ccccc3N2)cc1F (stereo not shown) [Example 141], the “Ferroptosis inhibition rate (%)” value falls from 103.2% to 59.10%.

Going from c1ccc2c(c1)CCC(c1cnco1)N2 (stereo not shown) [Example 65, 5-(1,2,3,4-tetrahydroquinolin-2-yl)oxazole] to CC(C)(O)c1ccc(C2CCc3ccccc3N2)cc1 (stereo not shown) [Example 18, 2-(4-(1,2,3,4-tetrahydroquinolin-2-yl)phenyl)propan-2-ol], the “Ferroptosis inhibition rate (%)” value falls from 89.25% to 66.52%.

First: NS(=O)(=O)c1ccccc1C1CCc2ccccc2N1 (stereo not shown) [Example 20, 2-(1,2,3,4-tetrahydroquinolin-2-yl)benzenesulfonamide]
Second: Cc1ccc2c(c1)CCC(c1ccc(NS(N)(=O)=O)cc1)N2 (stereo not shown) [Example 114, N-(4-(6-methyl-1,2,3,4-tetrahydroquinolin-2-yl)phenyl)sulfamoylamine]
The “Ferroptosis inhibition rate (%)” value of the first is higher: 95.88% for the first, 87.04% for the second.

Compared with Brc1ccc2c(c1)CCC(c1ccccc1)N2 (stereo not shown) [Example 70, 6-bromo-2-phenyl-1,2,3,4-tetrahydroquinoline], COC(=O)[C@@H]1C[C@H](c2ccccc2)Nc2ccccc21 (relative stereo) [Example 88, methyl (2R*, 4R*)-2-phenyl-1,2,3,4-tetrahydroquinolin-4-carboxylate] is higher in “Ferroptosis inhibition rate (%)” value: 97.10% for the first, 97.70% for the second.

Going from CC(C)(C)NC(=O)Nc1ccc2c(c1)CCC(c1ccccc1)N2 (stereo not shown) [Example 127, 1-(tert-butyl)-3-(2-phenyl-1,2,3,4-tetrahydroquinolin-6-yl)urea] to CN1CCN(C(=O)c2ccc(C3CCc4ccccc4N3)cc2)CC1 (stereo not shown) [Example 43, (4-methylpiperazin-1-yl)(4-(1,2,3,4-tetrahydroquinolin-2-yl)phenyl)methanone], the “Ferroptosis inhibition rate (%)” value rises from 87.93% to 107.1%.

Compared with Cc1ccc2c(c1)CCC(c1ccc3c(c1)CCC(=O)N3)N2 (stereo not shown) [Example 101, 6-methyl-1,2,3,3′,4,4′-hexahydro-[2,6′-biquinolin]-2′(1′H)-one], c1ccc(C2CCc3cc(CN4CCOCC4)ccc3N2)cc1 (stereo not shown) [Example 59, 4-((2-phenyl-1,2,3,4-tetrahydroquinolin-6-yl)methyl)morph-oline] is lower in “Ferroptosis inhibition rate (%)” value: 109.6% for the first, 76.73% for the second.

First: CS(=O)(=O)Nc1ccc2c(c1)CCC(c1ccccc1)N2 (stereo not shown) [Example 75, N-(2-phenyl-1,2,3,4-tetrahydroquinolin-6-yl)methanesulfonamide]
Second: CNC(=O)Cc1ccc2c(c1)CCC(c1ccccc1)N2 (stereo not shown) [Example 159, N-methyl-2-(2-phenyl-1,2,3,4-tetrahydroquinolin-6-yl)acetamide]
The “Ferroptosis inhibition rate (%)” value of the first is higher: 110.6% for the first, 76.27% for the second.

Going from CC(C)(C)CC(=O)Nc1ccc2c(c1)CCC(c1ccccc1)N2 (stereo not shown) [Example 130, 3,3-dimethyl-N-(2-phenyl-1,2,3,4-tetrahydroquinolin-6-yl)butanamide] to NC(=O)Nc1ccc2c(c1)CCC(c1ccccc1)N2 (stereo not shown) [Example 77, 1-(2-phenyl-1,2,3,4-tetrahydroquinolin-6-yl)urea], the “Ferroptosis inhibition rate (%)” value falls from 104.2% to 101.6%.

Going from OCc1cccc(C2CCc3ccccc3N2)c1 (stereo not shown) [Example 48, (3-(1,2,3,4-tetrahydroquinolin-2-yl)phenyl)methanol] to O=C(c1ccc(C2CCc3ccccc3N2)cc1)N1CCCCC1 (stereo not shown) [Example 41, piperidin-1-yl(4-(1,2,3,4-tetrahydroquinolin-2-yl)phen-yl)methanone], the “Ferroptosis inhibition rate (%)” value rises from 81.80% to 102.2%.

In the case of COC(=O)C1(c2ccccc2)CCc2ccccc2N1 (stereo not shown) [Example 93, methyl 2-phenyl-1,2,3,4-tetrahydroquinoline-2-carboxylate], the “Ferroptosis inhibition rate (%)” value was 89.78%.

Same assay, conditions: evaluation concentration 50 μmol/L, Erastin 3 μmol/L, 24 hours

Going from CNC(=O)c1cccc(C2CCc3ccccc3N2)c1 (stereo not shown) [Example 44, N-methyl-3-(1,2,3,4-tetrahydroquinolin-2-yl)benzamide] to COC(=O)c1ccc(C2CCc3ccccc3N2)cc1 (stereo not shown) [Example 17, methyl 4-(1,2,3,4-tetrahydroquinolin-2-yl)benzoate], the “Ferroptosis inhibition rate (%)” value falls from 114.3% to 98.12%.

Compared with COc1ccc(C2CCc3ccccc3N2)cc1 (stereo not shown) [Example 4, 2-(4-methoxyphenyl)-1,2,3,4-tetrahydroquinoline], c1ccc2c(c1)CCC(c1ccc3c(c1)OCO3)N2 (stereo not shown) [Example 9, 2-(benzo[d][1,3]dioxol-5-yl)-1,2,3,4-tetrahydroquinoline] is lower in “Ferroptosis inhibition rate (%)” value: 99.10% for the first, 88.84% for the second.

Compared with CC(C)(C)NC(=O)Nc1ccc2c(c1)CCC(c1ccc(C(N)=O)cc1)N2 (stereo not shown) [Example 87, 4-(6-(3-(tert-butyl)ureido)-1,2,3,4-tetrahydroquinolin-2-yl)benzamide], CC(C)(C)OC(=O)Nc1ccc2c(c1)CCC(c1ccccc1)N2 (stereo not shown) [Example 63, tert-butyl (2-phenyl-1,2,3,4-tetrahydroquinolin-6-yl)carbamate] is lower in “Ferroptosis inhibition rate (%)” value: 95.20% for the first, 68.73% for the second.

Compared with COC(=O)c1ccc2c(c1)CCC(c1ccccc1)N2 (stereo not shown) [Example 56, methyl 2-phenyl-1,2,3,4-tetrahydroquinoline-6-carboxylate], FC(F)(F)c1ccc2c(c1)CCC(c1ccccc1)N2 (stereo not shown) [Example 84, 2-phenyl-6-(trifluoromethyl)-1,2,3,4-tetrahydroquinoline] is higher in “Ferroptosis inhibition rate (%)” value: 100.1% for the first, 107.1% for the second.

Compared with c1ccc(C2CNc3ccccc3C2)cc1 (stereo not shown) [Example 162, 3-phenyl-1,2,3,4-tetrahydroquinoline], Fc1ccccc1C1CCc2ccccc2N1 (stereo not shown) [Example 28, 2-(2-fluorophenyl)-1,2,3,4-tetrahydroquinoline] is higher in “Ferroptosis inhibition rate (%)” value: 108.4% for the first, 109.4% for the second.

With OCc1cccc2c1CCC(c1ccccc1)N2 (stereo not shown) [Example 51, (2-phenyl-1,2,3,4-tetrahydroquinolin-5-yl)methanol] the “Ferroptosis inhibition rate (%)” value was 84.55%.
